# Test results: patent publication US20140051679A1, “KINASE INHIBITORS AND METHOD OF TREATING CANCER WITH SAME” (UNIVERISTY HEALTH NETWORKS, priority 2011, published 2014)
# pIC50: −log10 of the molar value.
# What was measured:
# human TTK = biological target: T1, human TTK (Homo sapiens, UniProt P33981); experiment: TTK inhibition assay (indirect ELISA); type: biochemical; conditions: GST-TTK 0.68 nM, 16 μM ATP; read-out: IC50 Ranges TTK
# T1 construct: amino terminal GST fusion of full length human TTK; purchased Invitrogen
# T1 sequence (P33981 1-857): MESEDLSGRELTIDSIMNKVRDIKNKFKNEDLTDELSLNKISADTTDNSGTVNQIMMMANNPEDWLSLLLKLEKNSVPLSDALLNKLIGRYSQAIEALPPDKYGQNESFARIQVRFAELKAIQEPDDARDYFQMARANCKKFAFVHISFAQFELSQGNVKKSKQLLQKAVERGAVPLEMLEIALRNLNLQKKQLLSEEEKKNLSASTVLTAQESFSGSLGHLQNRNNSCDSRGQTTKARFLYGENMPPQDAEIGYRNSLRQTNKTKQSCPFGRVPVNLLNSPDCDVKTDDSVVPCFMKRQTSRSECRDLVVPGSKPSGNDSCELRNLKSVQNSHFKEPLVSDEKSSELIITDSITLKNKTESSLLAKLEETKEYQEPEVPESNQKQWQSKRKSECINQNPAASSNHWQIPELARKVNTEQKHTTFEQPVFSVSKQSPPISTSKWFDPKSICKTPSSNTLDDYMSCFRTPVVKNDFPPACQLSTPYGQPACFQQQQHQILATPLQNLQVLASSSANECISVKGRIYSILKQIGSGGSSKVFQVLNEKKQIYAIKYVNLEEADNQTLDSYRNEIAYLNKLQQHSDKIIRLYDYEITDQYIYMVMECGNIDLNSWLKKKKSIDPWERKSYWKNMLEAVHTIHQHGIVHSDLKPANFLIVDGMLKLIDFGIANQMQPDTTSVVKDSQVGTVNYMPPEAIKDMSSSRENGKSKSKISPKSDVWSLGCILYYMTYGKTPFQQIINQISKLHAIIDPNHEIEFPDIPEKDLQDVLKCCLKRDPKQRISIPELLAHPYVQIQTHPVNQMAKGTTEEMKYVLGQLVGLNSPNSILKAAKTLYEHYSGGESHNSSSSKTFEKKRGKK
# human PLK4 = biological target: T2, human PLK4 (Homo sapiens, UniProt O00444); experiment: PLK4 inhibition assay (indirect ELISA); type: biochemical; conditions: GST-PLK4 4 nM, 15 μM ATP; read-out: IC50 Ranges PLK4
# T2 construct: amino terminal GST fusion of residues 1-391 of human PLK4; made in house; host or cells: E. coli
# T2 sequence (O00444 1-391): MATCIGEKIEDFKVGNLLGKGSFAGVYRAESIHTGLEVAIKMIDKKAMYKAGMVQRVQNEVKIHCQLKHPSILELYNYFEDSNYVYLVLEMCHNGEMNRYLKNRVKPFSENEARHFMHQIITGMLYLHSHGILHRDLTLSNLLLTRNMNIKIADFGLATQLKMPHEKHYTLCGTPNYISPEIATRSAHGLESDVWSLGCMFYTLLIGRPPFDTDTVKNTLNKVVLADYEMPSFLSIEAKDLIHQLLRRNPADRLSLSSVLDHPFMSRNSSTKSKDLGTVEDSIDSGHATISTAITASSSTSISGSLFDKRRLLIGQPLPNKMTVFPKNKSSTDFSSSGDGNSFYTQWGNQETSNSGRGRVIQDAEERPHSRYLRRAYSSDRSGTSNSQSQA
# Summary of the method: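 Compounds were tested either at a single 10 μM dose or across 10-point titrations (typically 0.5 to 0.001 μM), preincubated 15 min with 4 nM GST-PLK4 (human 1-391, dephosphorylated) before 15 μM ATP was added. MBP substrate phosphorylation over 30 min, pH 7.5 HEPES/MgCl2 buffer, read by HRP/TMB ELISA (450 nm). % inhibition vs. high-activity control; IC50 by logistic fit.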
# Aurora B = biological target: T3, Aurora B (Homo sapiens, UniProt Q96GD4); experiment: Aurora B inhibition assay (Z-Lyte); type: biochemical; conditions: 28 nM Aurora B, 128 μM ATP; read-out: IC50 Ranges Aurora B
# T3 construct: purchased Invitrogen PV3970
# Protocol: Aurora B inhibition was determined using the Z-Lyte assay kit from Invitrogen. The assay was performed using the recommended manufacturer's instructions with 128 μM ATP and 28 nM Aurora B (Invitrogen cat #PV3970). The % inhibition values were determined according to the manufacturer's directions and IC50 values were obtained using a non-linear 4 point logistic curve fit (XLfit4, IDBS)
# [1] = test system: MDA-MB-468 breast cancer cells; experiment: Cell growth inhibition, Sulforhodamine B assay, MDA-MB-468; type: cell-based; conditions: Homo sapiens, 120 h, 5 days culture, SRB assay, read-out: Cell Line GI50 Range MDA-MB-468
# [2] = test system: HCT116 colon cancer cells; experiment: Cell growth inhibition, Sulforhodamine B assay, HCT116; type: cell-based; conditions: Homo sapiens, HCT-116, 120 h, 5 days culture, SRB assay, read-out: Cell Line GI50 Range HCT116
# HT29 colon cancer cells = experiment: Cell growth inhibition, Sulforhodamine B assay, HT29; type: cell-based; conditions: Homo sapiens, HT-29, 120 h, 5 days culture, SRB assay, read-out: Cell Line GI50 Range HT29
# [3] = test system: PA-1 ovarian cancer cells; experiment: Cell growth inhibition, Sulforhodamine B assay, PA-1; type: cell-based; conditions: 120 h, 5 days culture, SRB assay, read-out: Cell Line GI50 Range PA-1
# T3 sequence (Q96GD4 whole entry): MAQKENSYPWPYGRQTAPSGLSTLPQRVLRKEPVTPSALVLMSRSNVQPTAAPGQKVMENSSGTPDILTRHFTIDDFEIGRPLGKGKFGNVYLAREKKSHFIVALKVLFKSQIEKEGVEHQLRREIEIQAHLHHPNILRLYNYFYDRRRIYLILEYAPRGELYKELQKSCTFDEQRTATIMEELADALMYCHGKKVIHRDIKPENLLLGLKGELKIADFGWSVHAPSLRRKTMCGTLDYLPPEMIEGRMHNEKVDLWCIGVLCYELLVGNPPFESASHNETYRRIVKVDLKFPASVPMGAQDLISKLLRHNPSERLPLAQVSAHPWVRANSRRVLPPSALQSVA
Structure (SMILES),pIC50 (human TTK),pIC50 (human PLK4),pIC50 (Aurora B),GI50 [1] [µM],GI50 [2] [µM],GI50 (HT29 colon cancer cells) [µM],GI50 [3] [µM]
"O=C(NC(c1ccccc1)C1CC1)c1ccc2[nH]nc(-c3ccc(OC4CCN(CCF)CC4)cc3)c2c1 (stereo not shown) [Example A122, N-(cyclopropyl(phenyl)methyl)-3-(4-((1-(2-fluoroethyl)piperidin-4-yl)oxy)phenyl)-1H-indazole-5-carboxamide]",≥ 5.30,≥ 5.30,–,≤ 5,≤ 5,≤ 5,≤ 5
"O=C(N[C@H](c1ccccn1)C1CC1)c1ccc2[nH]nc(-c3ccc(OC4CCN(C5COC5)CC4)cc3)c2c1 [Example A197, (S)—N-(cyclopropyl(pyridin-2-yl)methyl)-3-(4-((1-(oxetan-3-yl)piperidin-4-yl)oxy)phenyl)-1H-indazole-5-carboxamide]",≥ 5.30,≥ 5.30,≥ 5.30,≤ 5,≤ 5,–,≤ 5
"O=C(Nc1ccc2[nH]nc(-c3ccc(N4CCC(O)CC4)cc3)c2c1)C(c1ccsc1)N1CCC1 (stereo not shown) [Example A200, 2-(azetidin-1-yl)-N-(3-(4-(4-hydroxypiperidin-1-yl)phenyl)-1H-indazol-5-yl)-2-(thiophen-3-yl)acetamide]",≥ 5.30,≥ 5.30,≥ 5.30,≤ 5,≤ 5,–,≤ 5
"CC(C)(O)C1CCN(c2ccc(-c3n[nH]c4ccc(NC(=O)C(c5ccsc5)N5CCC5)cc34)cc2)CC1 (stereo not shown) [Example A201, 2-(azetidin-1-yl)-N-(3-(4-(4-(2-hydroxypropan-2-yl)piperidin-1-yl)phenyl)-1H-indazol-5-yl)-2-(thiophen-3-yl)acetamide]",≥ 5.30,≥ 5.30,≥ 5.30,≤ 5,≤ 5,–,≤ 5
"O=CN1CCC(Oc2ccc(-c3n[nH]c4ccc(C(=O)N[C@@H](c5ccccn5)C5CC5)cc34)cc2)CC1 [Example A203, (R)—N-(cyclopropyl(pyridin-2-yl)methyl)-3-(4-((1-formylpiperidin-4-yl)oxy)phenyl)-1H-indazole-5-carboxamide]",≥ 5.30,≥ 5.30,≥ 5.30,≤ 5,≤ 5,–,≤ 5
"O=CN1CCC(Oc2ccc(-c3n[nH]c4ccc(C(=O)N[C@H](c5ccccn5)C5CC5)cc34)cc2)CC1 [Example A204, (S)—N-(cyclopropyl(pyridin-2-yl)methyl)-3-(4-((1-formylpiperidin-4-yl)oxy)phenyl)-1H-indazole-5-carboxamide]",≥ 5.30,≥ 5.30,≥ 5.30,≤ 5,≤ 5,–,≤ 5
"COc1cc(-c2n[nH]c3ccc(C(=O)NC(c4ccccc4)C4CC4)cc23)ccc1OC1CCN(C=O)CC1 (stereo not shown) [Example A205, N-(cyclopropyl(phenyl)methyl)-3-(4-((1-formylpiperidin-4-yl)oxy)-3-methoxyphenyl)-1H-indazole-5-carboxamide]",≥ 5.30,≥ 5.30,≥ 5.30,≤ 5,≤ 5,–,≤ 5

# The remaining lines, values ahead:
pIC50 (human TTK),pIC50 (human PLK4),pIC50 (Aurora B),GI50 [1] [µM],GI50 [2] [µM],GI50 (HT29 colon cancer cells) [µM],GI50 [3] [µM],Structure (SMILES)
≥ 5.30,≥ 5.30,≥ 5.30,≤ 5,≤ 5,≤ 5,≤ 5,"O=C(NC(c1ccccc1)C1CC1)c1ccc2[nH]nc(-c3ccc(N[C@H]4CC[C@H](O)CC4)cc3)c2c1 (single isomer, unassigned) [Example A106, rel-N-(cyclopropyl(phenyl)methyl)-3-(4-(((1r,4r)-4-hydroxycyclohexyl)amino)phenyl)-1H-indazole-5-carboxamide]"
≥ 5.30,≥ 5.30,≥ 5.30,≤ 5,≤ 5,≤ 5,≤ 5,"O=C(Nc1ccc2[nH]nc(-c3ccc(N4CCOCC4)cc3)c2c1)C(c1cccs1)N1CCCC1 (stereo not shown) [Example A82, N-(3-(4-morpholinophenyl)-1H-indazol-5-yl)-2-(pyrrolidin-1-yl)-2-(thiophen-2-yl)acetamide]"
≥ 5.30,≥ 5.30,≥ 5.30,≤ 5,≤ 5,≤ 5,≤ 5,"O=C(Nc1ccc2[nH]nc(-c3ccc(N4CCC(O)CC4)cc3)c2c1)C(c1ccsc1)N1CCCCC1 (stereo not shown) [Example A83, N-(3-(4-(4-hydroxypiperidin-1-yl)phenyl)-1H-indazol-5-yl)-2-(piperidin-1-yl)-2-(thiophen-3-yl)acetamide]"
≥ 5.30,≥ 5.30,≥ 5.30,≤ 5,≤ 5,≤ 5,≤ 5,"O=C(NC(c1ccccc1)C1CC1)c1ccc2[nH]nc(-c3ccc(N4CCC(O)CC4)cc3)c2c1 (stereo not shown) [Example A84, N-(cyclopropyl(phenyl)methyl)-3-(4-(4-hydroxypiperidin-1-yl)phenyl)-1H-indazole-5-carboxamide]"
≥ 5.30,≥ 5.30,–,≤ 5,≤ 5,≤ 5,≤ 5,"COC(C(=O)Nc1ccc2[nH]nc(-c3ccc(N4CCC(O)CC4)cc3)c2c1)c1ccsc1 (stereo not shown) [Example A87, N-(3-(4-(4-hydroxypiperidin-1-yl)phenyl)-1H-indazol-5-yl)-2-methoxy-2-(thiophen-3-yl)acetamide]"
≥ 5.30,≥ 5.30,≥ 5.30,≤ 5,≤ 5,≤ 5,≤ 5,"O=C(Nc1ccc2[nH]nc(-c3ccc(N4CCC(O)CC4)cc3)c2c1)C(c1cccs1)N1CCCC1 (stereo not shown) [Example A88, N-(3-(4-(4-hydroxypiperidin-1-yl)phenyl)-1H-indazol-5-yl)-2-(pyrrolidin-1-yl)-2-(thiophen-2-yl)acetamide]"
≥ 5.30,≥ 5.30,≥ 5.30,≤ 5,≤ 5,≤ 5,≤ 5,"O=C(Nc1ccc2[nH]nc(-c3ccc(N4CCC(CO)CC4)cc3)c2c1)C(c1ccsc1)N1CCCC1 (stereo not shown) [Example A95, N-(3-(4-(4-(hydroxymethyl)piperidin-1-yl)phenyl)-1H-indazol-5-yl)-2-(pyrrolidin-1-yl)-2-(thiophen-3-yl)acetamide]"
≥ 5.30,≥ 5.30,≥ 5.30,≤ 5,≤ 5,≤ 5,≤ 5,"C[C@@H]1CCCN1[C@@H](C(=O)Nc1ccc2[nH]nc(-c3ccc(N4CCOCC4)cc3)c2c1)c1ccsc1 [Example A97, (R)-2-((R)-2-methylpyrrolidin-1-yl)-N-(3-(4-morpholinophenyl)-1H-indazol-5-yl)-2-(thiophen-3-yl)acetamide]"
